Assays:
Assay type in all cases: in vivo, human
[1] = system: osteoarthritis of the knee; assay: Second Phase 2 study: WOMAC stiffness subscale score
From the text: For subjects with bilateral knee pain, both knees will be treated, but the most symptomatic knee (ie, the most painful knee as measured by the Western Ontario and McMaster University Osteoarthritis Index [WOMAC® 3.1] pain subscale score at Screening) will be designated as the target knee for efficacy analyses. For subjects with unilateral knee pain, only the symptomatic (target) knee will be treated.
(§1) The VAS version of the WOMAC will be used for the Primary and Secondary Efficacy Endpoints. Efficacy endpoints will be assessed at Screening and Baseline (Day 1) and at the Week 2, Week 4, Week 8, and Week 12/EOS visits.
(§2) 4.9.2. Secondary Efficacy Endpoints: • 1. Change from Baseline in the WOMAC (VAS) pain subscale score for the target knee at 2, 8, and 12 weeks of treatment; • 2. Change from Baseline in the WOMAC (VAS) stiffness subscale scores for the target knee and WOMAC (VAS) functional ability subscale scores at 2, 4, 8, and 12 weeks of treatment; • 3. Change from Baseline in the overall WOMAC (VAS) score at 2, 4, 8, and 12 weeks of treatment; • 4. Subject's global assessment of disease status of the target knee at 2, 4, 8, and 12 weeks of treatment; • 5. Subject's global assessment of response to therapy of the target knee at 2, 4, 8, and 12 weeks of treatment; • 6. Amount of rescue medication (acetaminophen) consumed per day for target knee pain.
(§3) The Secondary Efficacy Endpoints, change from Baseline in the WOMAC subscale scores for pain, stiffness, and functional ability, and overall WOMAC score at 2, 4, 8, and 12 weeks of treatment, will be analyzed using the same methods as for the Primary Efficacy Endpoint.

[2] = system: osteoarthritis of the knee; assay: Second Phase 2 study: WOMAC overall score
From the text: This is a Phase 2, multicenter, randomized, double blind (within dose), Ibuprofen-placebo controlled, parallel group, dose range finding study to evaluate the efficacy, safety, and PK of 2-(diethylamino)ethyl 2-(4-isobutylphenyl)propionate spray in adult subjects with clinically symptomatic OA of the knee. For subjects with bilateral knee pain, both knees will be treated, but the most symptomatic knee (ie, the most painful knee as measured by the Western Ontario and McMaster University Osteoarthritis Index [WOMAC® 3.1] pain subscale score at Screening) will be designated as the target knee for efficacy analyses. For subjects with unilateral knee pain, only the symptomatic (target) knee will be treated.
as §1, §2, §3

[3] = system: osteoarthritis of the knee; assay: Second Phase 2 study: Subject's pain Assessment Scores (SPA)
Experimental: Subjects will record the following information in a Daily Diary starting at Screening: the amount of knee pain in the target knee while walking during the preceding 24 hours (using a 100 mm visual analog scale [VAS]), the times and number of sprays for each administration of study medication, the times when the subject washes his/her knees and/or takes a shower, the number of tablets of rescue medication taken that day and the times taken, the reason for taking the rescue medication (e.g., knee pain, headache, low back pain), any other concomitant medications taken that day, and any AEs occurring that day.

[4] = Baseline, oral, 3 × 400 mg (n = 20), first 130 subjects
[5] = Week 12, oral, 3 × 400 mg (n = 20), first 130 subjects
[6] = all subjects, Oral Ibuprofen 3 × 400 mg, n = 48, Week 12
[7] = all subjects, Oral Ibuprofen 3 × 400 mg, n = 48 vs. Placebo n = 48
[8] = oral 3×400 mg, first 130 subjects

Compound: CC(C)Cc1ccc(C(C)C(=O)O)cc1 (centres unmarked) [Ibuprofen, 2-(4-isobutylphenyl)propionic acid, reference compound]
- WOMAC Stiffness Subscale Scores, Baseline (LS Mean) [1, 4]: 56.4 mm
- WOMAC Stiffness Subscale Scores, % of improvement from Placebo [1, 5]: −10.3%
- WOMAC Stiffness Subscale Scores, Changes from Baseline (LS Mean) [1, 5]: −20.6 mm
- WOMAC Stiffness Subscale Scores, Different from placebo (LS Mean) [1, 5]: −6.6 mm
- WOMAC Stiffness Subscale Scores, Week 12 (LS Mean) [1, 5]: 35.8 mm
- WOMAC Stiffness Subscale Scores, % of improvement from Placebo [1, 6]: −6.9%
- WOMAC Stiffness Subscale Scores, % of improvement from baseline [1, 6]: −39.3%
- WOMAC Stiffness Subscale Scores, Changes from Baseline (LS Mean) [1, 6]: −20.3 mm
- WOMAC Stiffness Subscale Scores, Week 12 (LS Mean) [1, 6]: 31.3 mm
- WOMAC Stiffness, difference vs. Placebo [1, 7]: −3.8 mm
- WOMAC stiffness, difference from placebo [1, 8]: −6.7 mm
- WOMAC Overall Scores, Baseline (LS Mean) [2, 4]: 65.0 mm
- WOMAC Overall Scores, % of improvement from baseline [2, 5]: −33.1%
- WOMAC Overall Scores, % of improvement from placebo [2, 5]: −2.9%
- WOMAC Overall Scores, Changes from Baseline (LS Mean) [2, 5]: −21.5 mm
- WOMAC Overall Scores, Different from placebo (LS Mean) [2, 5]: −3.1 mm
- WOMAC Overall Scores, Week 12 (LS Mean) [2, 5]: 43.5 mm
- WOMAC Overall Scores, % of improvement from baseline [2, 6]: −41.3%
- WOMAC Overall Scores, % of improvement from placebo [2, 6]: −5.1%
- WOMAC Overall Scores, Changes from Baseline (LS Mean) [2, 6]: −24.9 mm
- WOMAC Overall Scores, Week 12 (LS Mean) [2, 6]: 35.4 mm
- WOMAC Total, difference vs. Placebo [2, 7]: −3.6 mm
- WOMAC overall, difference from placebo [2, 8]: −3.0 mm
- Subject’s pain Assessment Scores, Baseline (LS Mean) [3, 4]: 71.2 mm
- Subject’s pain Assessment Scores, % of improvement from baseline [3, 5]: −36.2%
- Subject’s pain Assessment Scores, % of improvement from placebo [3, 5]: −7.0%
- Subject’s pain Assessment Scores, Changes from Baseline (LS Mean) [3, 5]: −25.8 mm
- Subject’s pain Assessment Scores, Different from placebo (LS Mean) [3, 5]: −6.9 mm
- Subject’s pain Assessment Scores, Week 12 (LS Mean) [3, 5]: 45.4 mm
- Subject's pain Assessment Scores, % of improvement from Placebo [3, 6]: −8.4%
- Subject's pain Assessment Scores, % of improvement from baseline [3, 6]: −45.4%
- Subject's pain Assessment Scores, Changes from Baseline (LS Mean) [3, 6]: −30.5 mm
- Subject's pain Assessment Scores, Week 12 (LS Mean) [3, 6]: 36.6 mm
- SPA, difference vs. Placebo [3, 7]: −6.4 mm
- SPA, difference from placebo [3, 8]: 6.1 mm
